Data taken from patent US8758779B2, “Pharmaceutical composition of duloxetine” (Wockhardt Ltd., priority 2009, dated 2014).

Experiments:
[1] = Solubility studies (turbidity or clarity of the resultant solution); assay type: physicochemical; details: duloxetine present along with one or more cyclodextrin or derivatives, as physical admixture or complex
Description: Weighed amount of duloxetine hydrochloride was dispersed in required quantity of water at room temperature. To the above dispersion sodium bicarbonate, propylene glycol, sodium lauryl sulphate or Hydroxypropyl Beta-cyclodextrin was added in requisite amount as specified in Table 5.

[2] = water; cited from earlier work
[3] = acidic environment of gastrointestinal tract; cited from earlier work

CNCC[C@H](Oc1cccc2ccccc12)c1cccs1 [Duloxetine]
Solubility of duloxetine in presence of cyclodextrin [1]: significant increase in solubility
Aqueous solubility [2]: slightly soluble in water
Acid stability [3]: acid labile
